According to patent publication US20200405697A1, “Antitumor Agent” (Taiho Pharmaceutical Co., Ltd, priority 2017, published 2020):

Legend:
[1] = target: T1, human RNR (histidine tagged human M1 and human M2 proteins) (Homo sapiens, UniProt P23921); test: Human RNR inhibition effect (dCDP formation from CDP); assay type: biochemical; conditions: 10 μM CDP, 37° C. for 30 minutes, read-out: RNR inhibitory activity IC50
T1 construct: made in house; host or cells: Escherichia coli
T1 sequence (P23921 1-792): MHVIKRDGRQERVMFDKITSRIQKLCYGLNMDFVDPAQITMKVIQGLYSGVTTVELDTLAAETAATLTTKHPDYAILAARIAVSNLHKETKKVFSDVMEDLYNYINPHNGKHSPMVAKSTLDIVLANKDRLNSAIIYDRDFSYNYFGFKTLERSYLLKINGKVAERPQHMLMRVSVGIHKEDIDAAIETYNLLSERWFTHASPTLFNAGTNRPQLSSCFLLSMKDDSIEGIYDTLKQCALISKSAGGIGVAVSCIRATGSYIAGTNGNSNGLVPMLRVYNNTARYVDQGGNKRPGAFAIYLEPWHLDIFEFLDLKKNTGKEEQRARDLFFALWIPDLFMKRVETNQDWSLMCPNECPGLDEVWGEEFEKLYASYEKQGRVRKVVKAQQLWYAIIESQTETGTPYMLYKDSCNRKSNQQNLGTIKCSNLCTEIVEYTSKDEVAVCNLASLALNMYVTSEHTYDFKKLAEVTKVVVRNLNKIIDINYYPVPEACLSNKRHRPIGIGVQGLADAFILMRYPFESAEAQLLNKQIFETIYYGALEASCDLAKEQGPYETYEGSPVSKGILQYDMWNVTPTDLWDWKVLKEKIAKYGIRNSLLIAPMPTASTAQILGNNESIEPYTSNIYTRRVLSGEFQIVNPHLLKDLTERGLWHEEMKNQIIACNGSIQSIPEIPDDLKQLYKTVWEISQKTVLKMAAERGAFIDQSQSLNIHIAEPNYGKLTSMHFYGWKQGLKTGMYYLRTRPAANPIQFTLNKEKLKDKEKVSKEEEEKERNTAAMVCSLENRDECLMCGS
Procedure: The inhibitory activity against the ribonucleotide reduction reaction (RNR inhibitory activity) of the Example compound was determined by measuring the formation of deoxycytidine diphosphate (hereinafter referred to as dCDP) from cytidine diphosphate (hereinafter referred to as CDP) by the following method.
Human M1 subunit (isoform 1, GenBank accession No: NM_001033), to which a histidine tag is fused at the amino terminus, and human M2 subunit (mutant lacking amino terminal 59 amino acids of isoform 2, GenBank accession No: NM_001034), to which a histidine tag is fused, were overexpressed in Escherichia coli and were solubilized after collection, and histidine tagged human M1 and histidine tagged human M2 proteins were purified on a nickel chelate column. A mixture of the histidine tagged human M1 and histidine tagged human M2 proteins was used as RNR in the ribonucleotide reduction reaction. [to]
First, Example compounds were serially diluted with DMSO. Next, human M1 protein and human M2 protein were added to a 0.02% aqueous albumin solution derived from fetal bovine serum, a DMSO solution of the Example compound or the control DMSO solution (final concentration of DMSO was 1%) was added, and the mixture was allowed to stand for 20 minutes. Thereafter, the reaction buffer [50 mM HEPES buffer (pH 7.2) at the final concentration, 4 mM magnesium acetate at the final concentration, 100 mM potassium chloride at the final concentration, 6 mM dithiothreitol at the final concentration, 2 mM adenosine triphosphate at the final concentration, 0.24 mM nicotinamide adenine dinucleotide phosphate at final concentration] and 10 μM CDP at the final concentration were added and incubated at 37° C. for 30 minutes to perform ribonucleotide reduction reaction. Immediately after the reaction, the reaction was stopped by heating at 100° C. for 15 minutes, followed by centrifugation at 10,000 rpm for 10 minutes. After the centrifugation, a portion (5 μL) of the resulting supernatant was analyzed with a high performance liquid chromatography (Shimadzu Corporation, Prominence) using Shim-pack XR-ODS (manufactured by Shimadzu GLC Co., 3.0×100 mm).

[2] = system: A549 (Human lung cancer cell line); test: Effect of combination of sulfonamide compound and other antitumor agent (CellTiter-Glo, combination index): A549
[3] = Example Compound 14 1970 nM + Trifluridine 288 nM
[4] = Example Compound 14 2950 nM + Trifluridine 431 nM
[5] = Example Compound 209A 635 nM + Trifluridine 431 nM
[6] = Example Compound 235A 780 nM + Trifluridine 431 nM

| SMILES | IC50 [1] | further results |
| --- | --- | --- |
| [2H]C([2H])([2H])C1(O)CCOc2c(S(=O)(=O)N[C@H](c3n[nH]c(=O)o3)[C@H](C)c3c(F)ccc(C)c3C)ccc(Cl)c21 (single isomer, unassigned) [Example 200B] | 80 nM |  |
| Cc1ccc(F)c([C@@H](C)[C@H](NS(=O)(=O)c2ccc(Cl)c3c2OCCC3(C)O)c2n[nH]c(=O)o2)c1C (single isomer, unassigned) [Example 207A] | 130 nM |  |
| Cc1ccc(F)c([C@@H](C)[C@H](NS(=O)(=O)c2ccc(Cl)c3c2OCCC3(C)O)c2n[nH]c(=O)o2)c1C (single isomer, unassigned) [Example 207B] | 90 nM |  |
| COc1c(S(=O)(=O)N[C@H](c2n[nH]c(=O)o2)[C@H](C)c2c(F)ccc(C)c2C)ccc(Cl)c1C(C)O (single isomer, unassigned) [Example 208A] | 100 nM |  |
| COc1c(S(=O)(=O)N[C@H](c2n[nH]c(=O)o2)[C@H](C)c2c(F)ccc(C)c2C)ccc(Cl)c1C(C)O (single isomer, unassigned) [Example 208B] | 60 nM |  |
| Cc1c(Cl)ccc(F)c1[C@@H](C)[C@H](NS(=O)(=O)c1ccc(Cl)c2c1OCCC2(C)O)c1n[nH]c(=O)o1 (single isomer, unassigned) [Example 209B] | 180 nM |  |
| Cc1ccc(F)c([C@@H](C)[C@H](NS(=O)(=O)c2ccc(Cl)c3c2OCCC3(O)C(F)(F)F)c2n[nH]c(=O)o2)c1C (single isomer, unassigned) [Example 220A] | 60 nM |  |
| Cc1ccc(F)c([C@@H](C)[C@H](NS(=O)(=O)c2ccc(Cl)c3c2OCCC3(O)C(F)(F)F)c2n[nH]c(=O)o2)c1C (single isomer, unassigned) [Example 220B] | 80 nM |  |
| Cc1c(Br)ccc(F)c1[C@@H](C)[C@H](NS(=O)(=O)c1ccc(Cl)c2c1OCCC2(C)O)c1n[nH]c(=O)o1 (single isomer, unassigned) [Example 222B] | 60 nM |  |
| Cc1ccc(F)c([C@@H](C)[C@H](NS(=O)(=O)c2ccc(F)c3c2OCCC3(C)O)c2n[nH]c(=O)o2)c1C (single isomer, unassigned) [Example 224A] | 90 nM |  |
| Cc1ccc(F)c([C@@H](C)[C@H](NS(=O)(=O)c2ccc(F)c3c2OCCC3(C)O)c2n[nH]c(=O)o2)c1C (single isomer, unassigned) [Example 224B] | 100 nM |  |
| [2H]C([2H])([2H])C1(O)CCOc2c(S(=O)(=O)N[C@H](c3n[nH]c(=O)o3)[C@H](C)c3c(F)ccc(Br)c3C)ccc(Cl)c21 (single isomer, unassigned) [Example 226A] | 50 nM |  |
| [2H]C([2H])([2H])C1(O)CCOc2c(S(=O)(=O)N[C@H](c3n[nH]c(=O)o3)[C@H](C)c3c(F)ccc(Br)c3C)ccc(Cl)c21 (single isomer, unassigned) [Example 226B] | 70 nM |  |
| O=c1[nH]c(=O)n([C@H]2C[C@H](O)[C@@H](CO)O2)cc1C(F)(F)F [Trifluridine, trifluridine] |  | CI value [2, 3]: 0.892; Fa value [2, 3]: 0.4363; CI value [2, 4]: 0.844; Fa value [2, 4]: 0.6485; CI value ([2]; Example Compound 14 4420 nM + Trifluridine 645 nM): 0.678; CI value ([2]; Example Compound 14 6640 nM + Trifluridine 969 nM): 0.791; CI value [2, 5]: 0.897; Fa value [2, 5]: 0.5907; CI value ([2]; Example Compound 209A 952 nM + Trifluridine 646 nM): 0.733; CI value ([2]; Example Compound 209A 1430 nM + Trifluridine 970 nM): 0.775; CI value [2, 6]: 0.869; Fa value [2, 6]: 0.5850; CI value ([2]; Example Compound 235A 1170 nM + Trifluridine 646 nM): 0.680; CI value ([2]; Example Compound 235A 1750 nM + Trifluridine 967 nM): 0.739 |

The next lines start with results.

| IC50 [1] | SMILES | further results |
| --- | --- | --- |
| 840 nM | COc1cc(Cl)ccc1S(=O)(=O)N[C@H](c1n[nH]c(=O)o1)C(O)c1c(F)ccc(C)c1C (mixture of isomers) [Example 290, 4-chloro-N-((1S)-2-(6-fluoro-2,3-dimethylphenyl)-2-hydroxy-1-(5-oxo-4,5-dihydro-1,3,4-oxadiazol-2-yl)ethyl)-2-methoxybenzenesulfonamide] |  |
| 160 nM | C[C@H](c1c(F)ccc2ccccc12)[C@H](NS(=O)(=O)c1ccc(Cl)c2c1OCCC2F)c1n[nH]c(=O)o1 (mixture of isomers) [Example 292, 5-chloro-4-fluoro-N-((1S,2R)-2-(2-fluoronaphthalen-1-yl)-1-(5-oxo-4,5-dihydro-1,3,4-oxadiazol-2-yl)propyl)chroman-8-sulfonamide] |  |
| 110 nM | Cc1c(Cl)ccc(F)c1[C@@H](C)[C@H](NS(=O)(=O)c1ccc(Cl)c2c1OCCC2(C)N)c1n[nH]c(=O)o1 (mixture of isomers) [Example 328, 4-amino-5-chloro-N-((1S,2R)-2-(3-chloro-6-fluoro-2-methylphenyl)-1-(5-oxo-4,5-dihydro-1,3,4-oxadiazol-2-yl)propyl)-4-methylchroman-8-sulfonamide] |  |
| 50 nM | Cc1c(Br)ccc(F)c1[C@@H](C)[C@H](NS(=O)(=O)c1ccc(F)c2c1OCCC2(C)O)c1n[nH]c(=O)o1 (single isomer, unassigned) [Example 227A] |  |
| 90 nM | Cc1c(Br)ccc(F)c1[C@@H](C)[C@H](NS(=O)(=O)c1ccc(F)c2c1OCCC2(C)O)c1n[nH]c(=O)o1 (single isomer, unassigned) [Example 227B] |  |
| 140 nM | [2H]C([2H])([2H])C1(O)CCOc2c(S(=O)(=O)N[C@H](c3n[nH]c(=O)o3)[C@H](C)c3c(F)ccc(Cl)c3C)ccc(Cl)c21 (single isomer, unassigned) [Example 228B] |  |
| 60 nM | Cc1c(Cl)ccc(F)c1[C@@H](C)[C@H](NS(=O)(=O)c1ccc(F)c2c1OCCC2(C)O)c1n[nH]c(=O)o1 (single isomer, unassigned) [Example 229A] |  |
| 110 nM | Cc1c(Cl)ccc(F)c1[C@@H](C)[C@H](NS(=O)(=O)c1ccc(F)c2c1OCCC2(C)O)c1n[nH]c(=O)o1 (single isomer, unassigned) [Example 229B] |  |
| 120 nM | Cc1ccc(F)c([C@@H](C)[C@H](NS(=O)(=O)c2ccc(F)c3c2OCCC3O)c2n[nH]c(=O)o2)c1C (single isomer, unassigned) [Example 230A] |  |
| 50 nM | Cc1ccc(F)c([C@@H](C)[C@H](NS(=O)(=O)c2ccc(F)c3c2OCCC3O)c2n[nH]c(=O)o2)c1C (single isomer, unassigned) [Example 230B] |  |
| 310 nM | C[C@H](c1c(F)ccc2ccccc12)[C@H](NS(=O)(=O)c1ccc(Cl)c2c1OCCC2O)c1n[nH]c(=O)o1 (single isomer, unassigned) [Example 234A] |  |
| 70 nM | Cc1ccc(F)c([C@@H](C)[C@H](NS(=O)(=O)c2ccc(Cl)c3c2OCCC3O)c2n[nH]c(=O)o2)c1C (single isomer, unassigned) [Example 235B] |  |
| 290 nM | Cc1ccc(F)c([C@@H](C)[C@H](NS(=O)(=O)c2cccc3c2OC(C)(C)CC3O)c2n[nH]c(=O)o2)c1C (single isomer, unassigned) [Example 237A] |  |
| 110 nM | Cc1c(Cl)ccc(F)c1[C@@H](C)[C@H](NS(=O)(=O)c1ccc(Cl)c2c1OCCC2O)c1n[nH]c(=O)o1 (single isomer, unassigned) [Example 238A] |  |
| 200 nM | CCc1ccc(F)c([C@@H](C)[C@H](NS(=O)(=O)c2ccc(Cl)c3c2OCCC3O)c2n[nH]c(=O)o2)c1C (single isomer, unassigned) [Example 239A] |  |
